{"source": "paper PMC7997574", "about": "“Lead Optimization of Benzoxazolone Carboxamides as Orally Bioavailable and CNS Penetrant Acid Ceramidase Inhibitors” (Journal of Medicinal Chemistry, 2020)", "key": {"SH-SY5Y cells": {"test_system": "SH-SY5Y cells", "experiment": "Sphingolipid levels in SH-SY5Y cells by LC/MS", "assay_type": "cell-based, human", "procedure": "SH-SY5Y cells were purchased from Sigma Aldrich (Italy) and cultured in Dulbecco’s modified Eagle’s medium (DMEM) containing 10% fetal bovine serum at 37 °C and 5% CO2. Drugs were dissolved in DMSO (10 mM) and diluted in the cell culture medium with reduced serum (1%) for cell treatments.\nLipid extraction and sphingolipid measurements were performed as previously described.[36],[37] Lipids were extracted with a CHCl3/MeOH mixture (2:1, 3 mL) containing internal standards. The organic phase was collected, dried under nitrogen, and dissolved in CHCl3/MeOH (1:3) for LC/MS analyses. Ceramides and sphingosine were analyzed by LC/MS/MS, using a Waters ACQUITY UPLC coupled to a Waters Xevo TQMS and interfaced with an ESI ion source. Separation was performed on a Waters ACQUITY BEH C18 1.7 μm column (2.1 × 50 mm) at 60 °C. A linear gradient of 0.1% formic acid in MeCN/isopropyl alcohol (20:80) as solvent B in 0.1% formic acid in MeCN/H2O (20:80) as solvent A was applied at a flow rate of 0.4 mL min^–1. Detection of sphingolipids was performed in positive-ion mode. Capillary voltage was 3.5 kV, and cone voltage was 25 V. The source temperature and desolvation temperatures were set at 120 and 600 °C, respectively. Desolvation gas and cone gas (N2) flows were 800 and 20 L h^–1, respectively. Ceramides were identified by comparison of their LC retention times and MS/MS fragmentation patterns with those of authentic standards (Avanti Polar Lipids). Multiple Reaction Monitoring (MRM) ion chromatograms were used to quantify myristoyl ceramide (C14:0, m/z: 492.5 > 264.3), palmitoyl ceramide (C16:0, m/z 520.3 > 264.3), stearoyl ceramide (C18:0, m/z: 548.3 > 264.3), lignoceroyl ceramide (C24:0, m/z: 632.3 > 264.3), and nervonoyl ceramide (C24:1 m/z: 630.3 > 264.3) using lauroyl ceramide standard (m/z: 464.5 > 264.3). Detection and analysis were controlled by Waters MassLynx software version 4.1. Sphingosine was identified by comparison of its LC retention times and MS2 fragmentation patterns with those of authentic standards (Avanti Polar Lipids). Extracted ion chromatograms were used to quantify sphingosine standard (d18:1, m/z: 300.5 > 282.5). Detection and analysis were controlled by Waters MassLynx software version 4.1. Calibration curves were prepared for every experiment."}, "[1]": {"experiment": "In vivo pharmacokinetic study in male CD1 mice", "conditions": "mouse", "procedure": "Male CD1 mice (22–24 g, 6 weeks old, SLAC Laboratory Animal Co. Ltd.) were group-housed in ventilated cages and had free access to water and food. They were maintained under a […] at controlled temperature and relative humidity. All efforts were made to minimize animal suffering and to use the minimal number of animals required to produce reliable results. All procedures were performed in accordance with the Ethical Guidelines on the Protection of Animals Used for Scientific Purposes at the DMPK Group at Shanghai ChemPartner Co., Ltd. 22m was administrated intravenously (i.v.) at 3 mg kg^–1 (vehicle: 100% saline at 0.6 mg mL^–1) via tail vein injection (N = 18) and via oral administration (p.o.) at 10 mg kg^–1 (vehicle: 100% saline at 2.0 mg mL^–1) by oral gavage (N = 18). Sample collection. Samples were collected at 0.25, 0.5, 1, 4, 8, and 24 h. Animals were sacrificed 24 h after 22m administration; plasma, brain, and CSF samples were collected and stored at −80 °C. Blood collection: The animal was restrained manually, and approximately 150 μL of blood/time point was collected into the K2EDTA tube via retro orbital puncture under anesthesia with isoflurane. The blood sample was put on ice and centrifuged to obtain the plasma sample (2000 × g, 5 min under 4 °C) within 15 min and then acidified following 100 μL of plasma + 1.0 μL of formic acid. An aliquot of 20 μL sample (pretreatment with 1% formic acid) was added with 200 μL of IS (propranolol, 40 ng mL^–1) in MeCN. The mixture was vortexed for 5 min and centrifuged at 6000 rpm for 10 min. The 0.5 μL mixture was injected into LC/MS/MS. Brain collection: Brain was removed and immediately homogenized immediately for 2 min with three volumes (v/w) of homogenizing solution (PBS:formic acid = 100:1), and then the solution was stored in tubes under −70 °C until analysis. An aliquot of 20 μL sample was added with 200 μL of MeCN, which contains IS (propranolol, 40 ng mL^–1) for protein precipitation. The mixture was vortexed for 5 min and centrifuged at 6000 rpm for 10 min. The 0.5 μL mixture was injected into LC/MS/MS. CSF collection: A midline incision was made on the neck. The muscle under the skin was cut to expose the cisterna magna. The CSF was collected by capillary. An aliquot of 3 μL sample was added with 90 μL of IS (propranolol, 40 ng mL^–1) in MeCN:H2O = 2:1 (added 1% formic acid). The mixture was vortexed for 5 min and centrifuged at 6000 rpm for 10 min. The 1.5 μL mixture was injected into LC/MS/MS. 22m sample levels were monitored on an LC/MS/MS-19 (API5500, Qtriple) system, using the calibration curve and […] as internal standard. Chromatography was carried out on a Waters BEH C18 column (2.1 × 50 mm, 1.7 μm) at 60 °C, setting a flow rate of 0.60 mL min^–1. Mobile phases were as follows: A = H2O/0.025% formic acid/1 mM NH4OAc and B = MeOH/0.025% formic acid/1 mM NH4OAc. After the initial 0.20 min at 10% of mobile phase B, the percentage of mobile phase B increased at 70% at 0.50 min, reaching steadily 90% in the range of 0.80–1.30 min. Then the system returned to the initial conditions in a single step until 1.80 min. The following parent (m/z)/daughter (m/z) transitions were monitored: 22m: m/z = 332.20/[…] Da; […] (IS): m/z: 260.30/116.10 Da."}, "[2]": {"conditions": "plasma, oral bioavailability, 10 mg kg^–1 p.o."}}}
{"smiles": "CC(C)CNC(=O)n1c(=O)oc2cc(C3CCN(C)CC3)ccc21", "note": "[22m, N-Isobutyl-6-(1-methyl-4-piperidyl)-2-oxo-1,3-benzoxazole-3-carboxamide]", "values": [{"measurement": "hexosylceramide (HexCer) (d18:1/16:0) levels", "setting": "SH-SY5Y cells", "result": "no major variations"}, {"measurement": "sphingomyelin (SM) (d18:1/16:0) levels", "setting": "SH-SY5Y cells", "result": "no major variations"}, {"measurement": "ceramide levels, Cer (d18:0/16:0) and Cer (d18:1/16:0)", "setting": "SH-SY5Y cells; 3 h of incubation", "result": "intracellular accumulation of various ceramide species"}, {"measurement": "sphingosine levels", "setting": "SH-SY5Y cells; 3 h of incubation", "result": "decrease in the levels of sphingosine"}, {"measurement": "AUC at 24 h", "setting": "[1]; iv, CSF, 3 mg kg^–1 i.v.", "result": 77.8, "unit": "ng·h/mL"}, {"measurement": "Cmax at 24 h", "setting": "[1]; iv, CSF, 3 mg kg^–1 i.v.", "result": 71.6, "unit": "ng/mL"}, {"measurement": "Tmax", "setting": "[1]; iv, CSF, 3 mg kg^–1 i.v.", "result": 0.25, "unit": "h"}, {"measurement": "half-life at 24 h", "setting": "[1]; iv, CSF, 3 mg kg^–1 i.v.", "result": 0.661, "unit": "h"}, {"measurement": "AUC at 24 h", "setting": "[1]; iv, brain, 3 mg kg^–1 i.v.", "result": 10100, "unit": "ng·h/mL"}, {"measurement": "Cmax at 24 h", "setting": "[1]; iv, brain, 3 mg kg^–1 i.v.", "result": 6440, "unit": "ng/mL"}, {"measurement": "Tmax", "setting": "[1]; iv, brain, 3 mg kg^–1 i.v.", "result": 0.25, "unit": "h"}, {"measurement": "half-life at 24 h", "setting": "[1]; iv, brain, 3 mg kg^–1 i.v.", "result": 1.01, "unit": "h"}, {"measurement": "AUC at 24 h", "setting": "[1]; iv, plasma, 3 mg kg^–1 i.v.", "result": 212, "unit": "ng·h/mL"}, {"measurement": "half-life", "setting": "[1]; iv, plasma, 3 mg kg^–1 i.v.", "result": 1, "unit": "h"}, {"measurement": "half-life at 24 h", "setting": "[1]; iv, plasma, 3 mg kg^–1 i.v.", "result": 1.26, "unit": "h"}, {"measurement": "clearance at 24 h", "setting": "[1]; iv, plasma, 3 mg kg^–1 i.v., read-out: Cl (L h^–1 kg^–1) (converted)", "result": 235, "unit": "mL/min/kg"}, {"measurement": "Vd at 24 h", "setting": "[1]; iv, plasma, 3 mg kg^–1 i.v., read-out: Vdss (L kg^–1)", "result": 12.5, "unit": "L/kg"}, {"measurement": "bioavailability", "setting": "[1]; [2]", "result": 58, "unit": "%"}, {"measurement": "bioavailability at 24 h", "setting": "[1]; [2]", "result": 58.3, "unit": "%"}, {"measurement": "AUC at 24 h", "setting": "[1]; po, CSF, 10 mg kg^–1 p.o.", "result": 119, "unit": "ng·h/mL"}, {"measurement": "Cmax at 24 h", "setting": "[1]; po, CSF, 10 mg kg^–1 p.o.", "result": 52.2, "unit": "ng/mL"}, {"measurement": "Tmax", "setting": "[1]; po, CSF, 10 mg kg^–1 p.o.", "result": 1, "unit": "h"}, {"measurement": "half-life at 24 h", "setting": "[1]; po, CSF, 10 mg kg^–1 p.o.", "result": 1.23, "unit": "h"}, {"measurement": "AUC at 24 h", "setting": "[1]; po, brain, 10 mg kg^–1 p.o.", "result": 14600, "unit": "ng·h/mL"}, {"measurement": "Cmax at 24 h", "setting": "[1]; po, brain, 10 mg kg^–1 p.o.", "result": 6900, "unit": "ng/mL"}, {"measurement": "Tmax", "setting": "[1]; po, brain, 10 mg kg^–1 p.o.", "result": 1, "unit": "h"}, {"measurement": "half-life at 24 h", "setting": "[1]; po, brain, 10 mg kg^–1 p.o.", "result": 1.18, "unit": "h"}, {"measurement": "AUC at 24 h", "setting": "[1]; po, plasma, 10 mg kg^–1 p.o.", "result": 412, "unit": "ng·h/mL"}, {"measurement": "Cmax at 24 h", "setting": "[1]; po, plasma, 10 mg kg^–1 p.o.", "result": 216, "unit": "ng/mL"}, {"measurement": "Tmax at 24 h", "setting": "[1]; po, plasma, 10 mg kg^–1 p.o.", "result": 0.5, "unit": "h"}, {"measurement": "half-life at 24 h", "setting": "[1]; po, plasma, 10 mg kg^–1 p.o.", "result": 1.03, "unit": "h"}]}
